Experimental data published in ChEMBL document CHEMBL1146417, “New anti-HIV-1, antimalarial, and antifungal compounds from Terminalia bellerica” (J Nat Prod, 1997).

What was measured:
[1] = test system: Human immunodeficiency virus 1; experiment: Antiviral activity against HIV1 in MT4 cells assessed as reduction of HIV antigen production; type: functional, organism-based; conditions: Human immunodeficiency virus 1, MT4
Penicillium expansum = experiment: Antifungal activity against Penicillium expansum IMI 960902 on TLC plate by bioautographic method; type: functional
Plasmodium falciparum = experiment: Antimalarial activity against chloroquine-sensitive Plasmodium falciparum 3D7 by [3H]hypoxanthine incorporation assay; type: functional, organism-based
Candida albicans = experiment: Antifungal activity against Candida albicans IMI 349010 on TLC plate by agar overlay method; type: functional

| Compound | EC50 [1] [µM] | Activity (Penicillium expansum) [µg] | IC50 (Plasmodium falciparum) [µM] | Activity (Candida albicans) [µg] |
| --- | --- | --- | --- | --- |
| Oc1ccc2c(c1)O[C@H](c1ccc3c(c1)OCO3)CC2 | 7 | 3 | > 50 | 6 |
| C[C@@H]1[C@H](O)[C@@H](C)/C=C/C=C/C=C/C=C/C=C/C=C/C=C/[C@H](O[C@@H]2O[C@H](C)[C@@H](O)[C@H](N)[C@@H]2O)C[C@@H]2O[C@](O)(C[C@@H](O)C[C@@H](O)[C@H](O)CC[C@@H](O)C[C@@H](O)CC(=O)O[C@H]1C)C[C@H](O)[C@H]2C(=O)O [AMPHOTERICIN B] |  |  |  | 1 |
| C=C(Cc1ccc(O)cc1)C(=C)Cc1ccc(O)cc1 [ANOLIGNAN B] | 7 | 5 | 20.5 | >200 |
| C=C(Cc1ccc(O)cc1)C(=C)Cc1ccc(OC)cc1O [TERMILIGNAN] | 7 | 1 | 9.6 | 10 |
| C=C(Cc1ccc(O)cc1)C(O)(CO)Cc1ccc(OC)cc1O (stereo not drawn) [THANNILIGNAN] | 7 | 2 | > 50 | 80 |
| NYSTATIN |  | 0.5 |  |  |
